Results from patent US9550796B2, “Pyrrolopyrrolone derivatives and their use as BET inhibitors” (NOVARTIS AG, priority 2013, dated 2017).

Legend:
CREBBP = CREBBP (Homo sapiens (Human), UniProt Q92793); test: AlphaScreen in-vitro binding assay for CREBBP; settings: 324 nM His-CREBBP (1081-1197), acetyl-histone H4 (AcK 5, 8, 12) peptide
Method in brief: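 IC50 values were derived by non-linear regression of percent inhibition across 8 compound concentrations. Protein was His-tagged CREBBP bromodomain (1081-1197), peptide acetyl-histone H4 (AcK 5, 8, 12), in HEPES pH 7.5 buffer. Read-out was AlphaScreen with Ni-chelate acceptor and streptavidin donor beads, 35 min at 30° C then 60 min at RT.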

BRD4 = BRD4 (Homo sapiens (Human), UniProt O60885); test: TR-FRET in-vitro binding assay for BRD4; settings: 45 nM His-Brd4(44-477), acetyl-histone H4 (AcK 5, 8, 12, 16) peptide
Method in brief: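 Binding is detected by TR-FRET following incubation for 35 minutes at 30° C.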

Chain of CREBBP (Q92793 1081-1197): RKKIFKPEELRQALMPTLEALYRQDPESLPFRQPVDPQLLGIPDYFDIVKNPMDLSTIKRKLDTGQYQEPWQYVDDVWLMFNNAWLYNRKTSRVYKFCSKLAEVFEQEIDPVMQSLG

| IC50 (CREBBP) [nM] | IC50 (BRD4) [nM] | SMILES |
| --- | --- | --- |
| 310 | 270 | Cn1c(-c2ccc(=O)n(C)c2)cc2c1C(c1ccc(Cl)cc1)N(c1cc(Cl)c(=O)n(C)c1)C2=O (stereo not drawn) [Example 42, 5-(5-chloro-1-methyl-6-oxo-1,6-dihydropyridin-3-yl)-6-(4-chlorophenyl)-1-methyl-2-(1-methyl-6-oxo-1,6-dihydropyridin-3-yl)-5,6-dihydropyrrolo[3,4-b]pyrrol-4(1H)-one] |
| 790 | 85.3 | Cc1cc2c(n1C)[C@@H](c1ccc(Cl)cc1)N(c1cc(Cl)c(=O)n(C)c1)C2=O [Example 75, (R)-5-(5-chloro-1-methyl-6-oxo-1,6-dihydropyridin-3-yl)-6-(4-chlorophenyl)-1,2-dimethyl-5,6-dihydropyrrolo[3,4-b]pyrrol-4(1H)-one] |
| 1300 | 109 | Cn1ccc2c1[C@@H](c1ccc(Cl)cc1)N(c1cc(Cl)c(=O)n(C)c1)C2=O [Example 77, (R)-5-(5-chloro-1-methyl-6-oxo-1,6-dihydropyridin-3-yl)-6-(4-chlorophenyl)-1-methyl-5,6-dihydropyrrolo[3,4-b]pyrrol-4(1H)-one] |

Continued, molecule first:

| SMILES | IC50 (CREBBP) [nM] | IC50 (BRD4) [nM] |
| --- | --- | --- |
| Cc1cn(C)c2c1C(=O)N(c1cc(C)c3nnc(C)n3c1)C2c1ccc(Cl)cc1 (stereo not drawn) [Example 33, 6-(4-chlorophenyl)-5-(3,8-dimethyl-[1,2,4]triazolo[4,3-a]pyridin-6-yl)-1,3-di methyl-5,6-dihydropyrrolo[3,4-b]pyrrol-4(1H)-one] | 10100 | 31 |
| Cc1cn(C)c2c1C(=O)N(c1cc(C)c(=O)n(C)c1)C2c1ccc(Cl)cc1 (stereo not drawn) [Example 34, 6-(4-chlorophenyl)-5-(1,5-dimethyl-6-oxo-1,6-dihydropyridin-3-yl)-1,3-dimethyl-5,6-dihydropyrrolo[3,4-b]pyrrol-4(1H)-one] | 1900 | 43 |
| COc1ncc(-c2cc3c(n2C)C(c2ccc(Cl)cc2)N(c2cc(Cl)c(=O)n(C)c2)C3=O)c(OC)n1 (stereo not drawn) [Example 38, 5-(5-chloro-1-methyl-6-oxo-1,6-dihydropyridin-3-yl)-6-(4-chlorophenyl)-2-(2,4-dimethoxypyrimidin-5-yl)-1-methyl-5,6-dihydropyrrolo[3,4-b]pyrrol-4(1H)-one] | 205 | 47 |
| Cc1cc(N2C(=O)c3cc(-c4ccn(C)c(=O)c4)n(C)c3C2c2ccc(Cl)cc2)cn(C)c1=O (stereo not drawn) [Example 45, 6-(4-chlorophenyl)-5-(1,5-dimethyl-6-oxo-1,6-dihydropyridin-3-yl)-1-methyl-2-(1-methyl-2-oxo-1,2-dihydropyridin-4-yl)-5,6-dihydropyrrolo[3,4-b]pyrrol-4(1H)-one] | 370 | 24.5 |
| COc1ncc(-c2cc3c(n2C)[C@@H](c2ccc(Cl)cc2)N(c2cc(C)c(=O)n(C)c2)C3=O)c(OC)n1 [Example 54, (R)-6-(4-chlorophenyl)-2-(2,4-dimethoxypyrimidin-5-yl)-5-(1,5-dimethyl-6-oxo-1,6-dihydropyridin-3-yl)-1-methyl-5,6-dihydropyrrolo[3,4-b]pyrrol-4(1H)-one] | 91 | 45 |
| COc1ncc(-c2cc3c(n2C)[C@@H](c2ccc(Cl)cc2)N(c2cc(C)c(=O)n(C)c2)C3=O)cn1 [Example 56, (R)-6-(4-chlorophenyl)-5-(1,5-dimethyl-6-oxo-1,6-dihydropyridin-3-yl)-2-(2-methoxypyrimidin-5-yl)-1-methyl-5,6-dihydropyrrolo[3,4-b]pyrrol-4(1H)-one] | 130 | 28.3 |
